Tested on: IFN-γ
Type: in vivo, C57BL/6 mice
Conditions: 72 h supernatant of blood cell cultures one week after last booster; ESAT-6 10 µg/dose, three vaccinations

`CCCCCCCCCCCCCCCCCC[N+](C)(C)CCCCCCCCCCCCCCCCCC.[Br-]` [DDA, dimethyl dioctadecyl ammonium bromide] was tested, and the “ESAT-6 specific recall response, IFN-γ, Expt.I” value was <50 pg/mL.

Source: patent EP1183044B1, “ADJUVANT COMBINATIONS FOR IMMUNIZATION AND VACCINES” (priority 1999, dated 2000)
